Active and inactive are the calls of the source. No cut-off for these calls is given here.
Tests used:
[1] = Induction of cytosolic calcium ion concentration in mouse non-peptidergic nociceptive DRG neuron at 10 uM measured after 1 hr by Fura2AM dye based fluorescence microscopic analysis; format: functional
[2] = test system: Mus musculus; experiment: Anxiolytic activity in restraint stress induced anxiety mouse model assessed as total number of responses at 2 to 50 mg/kg, ip administered measured after 5 mins by open field test; format: functional, organism-based; conditions: dose 2-50 mg/kg
[3] = target: T1, GABA A receptor alpha-1/beta-1/gamma-2 (Homo sapiens, UniProt P14867+P18505+P18507); experiment: Negative allosteric modulation activity at human GABAA alpha1beta1gamma2 stably expressed in HEK cells by whole cell patch clamp method; format: cell-based
T1 sequence (P14867 whole entry): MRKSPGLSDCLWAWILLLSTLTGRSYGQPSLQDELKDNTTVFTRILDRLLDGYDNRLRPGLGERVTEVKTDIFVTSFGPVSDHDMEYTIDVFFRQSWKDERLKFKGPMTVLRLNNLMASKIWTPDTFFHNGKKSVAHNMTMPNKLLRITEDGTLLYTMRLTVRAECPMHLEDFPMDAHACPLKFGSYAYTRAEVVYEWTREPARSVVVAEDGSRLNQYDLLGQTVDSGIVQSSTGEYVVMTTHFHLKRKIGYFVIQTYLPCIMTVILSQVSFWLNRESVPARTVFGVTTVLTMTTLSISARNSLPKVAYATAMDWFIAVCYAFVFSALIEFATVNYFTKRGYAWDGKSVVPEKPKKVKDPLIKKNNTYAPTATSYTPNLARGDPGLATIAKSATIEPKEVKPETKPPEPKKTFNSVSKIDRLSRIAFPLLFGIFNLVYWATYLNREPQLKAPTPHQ
T1 sequence (P18507 whole entry): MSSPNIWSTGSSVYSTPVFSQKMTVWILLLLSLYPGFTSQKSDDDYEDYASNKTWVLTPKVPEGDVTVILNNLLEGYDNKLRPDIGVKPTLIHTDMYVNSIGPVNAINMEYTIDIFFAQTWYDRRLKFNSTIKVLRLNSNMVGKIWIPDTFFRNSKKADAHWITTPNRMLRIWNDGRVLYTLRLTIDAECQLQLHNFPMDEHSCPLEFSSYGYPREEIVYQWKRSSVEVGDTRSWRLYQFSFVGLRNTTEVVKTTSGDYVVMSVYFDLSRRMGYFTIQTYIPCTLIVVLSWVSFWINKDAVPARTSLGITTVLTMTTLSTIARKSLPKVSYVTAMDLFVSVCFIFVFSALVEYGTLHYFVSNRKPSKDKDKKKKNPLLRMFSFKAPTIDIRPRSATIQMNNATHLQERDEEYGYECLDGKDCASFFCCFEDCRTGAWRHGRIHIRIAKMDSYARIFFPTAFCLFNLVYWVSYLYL
T1 sequence (P18505 whole entry): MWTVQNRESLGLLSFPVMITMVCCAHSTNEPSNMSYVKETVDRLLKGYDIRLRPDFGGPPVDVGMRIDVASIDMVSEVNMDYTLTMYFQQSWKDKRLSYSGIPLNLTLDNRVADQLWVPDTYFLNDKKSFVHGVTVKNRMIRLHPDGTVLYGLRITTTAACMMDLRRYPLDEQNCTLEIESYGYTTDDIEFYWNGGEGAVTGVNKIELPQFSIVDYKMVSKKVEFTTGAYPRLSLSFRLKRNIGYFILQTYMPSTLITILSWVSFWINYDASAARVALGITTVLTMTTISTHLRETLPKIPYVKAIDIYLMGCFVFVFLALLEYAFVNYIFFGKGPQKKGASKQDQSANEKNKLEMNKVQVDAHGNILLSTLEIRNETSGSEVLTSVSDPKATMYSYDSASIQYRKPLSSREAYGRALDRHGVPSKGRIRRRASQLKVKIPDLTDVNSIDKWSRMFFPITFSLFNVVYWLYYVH

[4] = test system: Mus musculus; experiment: Anxiolytic activity in restraint stress induced anxiety mouse model assessed as total number of responses at 2 to 50 mg/kg, ip administered measured after 5 mins by plus maze test; format: functional, organism-based; conditions: dose 2-50 mg/kg
[5] = test system: Neuron; experiment: Negative allosteric modulation of human GABA receptor expressed in mouse DRG neurons assessed as inhibition of 500 nM GABA-induced response at 0.5 uM; format: tissue-based; conditions: filed as negative allosteric modulator
[6] = test system: HEK; experiment: Negative allosteric modulation of human GABA receptor expressed in HEK cells assessed as inhibition of GABA-induced current in presence of EC20 concentration of GABA by patch clamp method; format: cell-based; conditions: filed as negative allosteric modulator
[7] = test system: Mus musculus; experiment: Antinociceptive activity in mouse assessed as total number of responses at 2 to 50 mg/kg, ip by Von Frey test; format: functional, organism-based; conditions: dose 2-50 mg/kg
[8] = target: T2, GABA-A receptor; alpha-2/beta-3/gamma-2 (Homo sapiens, UniProt P18507+P28472+P47869); experiment: Negative allosteric modulation activity at human GABAA alpha2beta3gamma2 stably expressed in HEK cells by whole cell patch clamp method; format: cell-based
T2 sequence (P18507 whole entry): T1 sequence (P18507 whole entry)
T2 sequence (P28472 whole entry): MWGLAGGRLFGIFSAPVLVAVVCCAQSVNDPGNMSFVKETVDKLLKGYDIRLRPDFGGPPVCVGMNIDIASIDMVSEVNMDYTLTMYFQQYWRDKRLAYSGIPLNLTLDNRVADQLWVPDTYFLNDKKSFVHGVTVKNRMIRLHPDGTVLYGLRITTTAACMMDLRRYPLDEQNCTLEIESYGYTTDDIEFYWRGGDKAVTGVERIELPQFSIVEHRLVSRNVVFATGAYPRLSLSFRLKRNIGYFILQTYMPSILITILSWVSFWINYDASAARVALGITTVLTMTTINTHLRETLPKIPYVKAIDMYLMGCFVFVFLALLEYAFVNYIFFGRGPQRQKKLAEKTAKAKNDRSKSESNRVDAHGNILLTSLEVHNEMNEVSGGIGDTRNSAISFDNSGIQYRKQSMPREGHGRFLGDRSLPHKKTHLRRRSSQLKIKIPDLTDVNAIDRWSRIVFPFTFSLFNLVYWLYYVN
T2 sequence (P47869 whole entry): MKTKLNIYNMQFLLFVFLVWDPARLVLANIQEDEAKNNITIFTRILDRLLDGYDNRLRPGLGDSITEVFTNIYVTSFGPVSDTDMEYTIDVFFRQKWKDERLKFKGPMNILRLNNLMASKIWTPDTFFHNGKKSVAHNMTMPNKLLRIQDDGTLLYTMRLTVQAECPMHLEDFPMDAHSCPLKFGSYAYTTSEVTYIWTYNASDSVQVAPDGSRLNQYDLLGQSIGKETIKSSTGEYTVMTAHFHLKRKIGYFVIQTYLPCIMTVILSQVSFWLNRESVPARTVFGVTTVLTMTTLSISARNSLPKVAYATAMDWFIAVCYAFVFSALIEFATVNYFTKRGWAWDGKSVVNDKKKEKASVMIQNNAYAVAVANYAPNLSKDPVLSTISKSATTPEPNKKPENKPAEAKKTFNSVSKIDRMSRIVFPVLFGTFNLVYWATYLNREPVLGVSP

For `CC(C)CCC[C@@H](C)[C@H]1CC[C@H]2[C@@H]3C(=O)C=C4C=CCC[C@]4(C)[C@H]3CC[C@]12C`, the Activity [1] was 27%, the Activity [2] was “inactive” and the IC50 [3] was 1.5 µM. The Activity [4] was “inactive”, the Activity [5] was “Active” and the Activity [6] was “Active”. For the same compound, the Activity [7] was “Active” and the IC50 [8] was 15.7 µM.
